Patent publication US9475842B2, “Hexadepsipeptide analogues as anticancer compounds” (PIRAMAL ENTERPRISES LIMITED, priority 2012, dated 2016)

Experiments:
[1] = tested on: MCF-10A, a non-tumourigenic cell line; test: Monolayer assay (CCK-8 cytotoxicity), normal cells; format: cell-based; conditions: MCF10A, Normal Breast Epithelium, 24 hrs exposure, CCK-8
Protocol: (§1) The assays were designed as in the reference, BMC Cancer, 2010, 10, 610, 1-11; the disclosure of which is incorporated by reference for the teaching of the assay.
(§2) Human tumour cell lines: Panc-1 (Pancreatic Cancer), HCT 116 (Colorectal Cancer), ACHN (Renal Cell Carcinoma), Calu-1 (Lung Carcinoma), MiaPaca2 (Pancreatic Cancer), FADU (Head and Neck Cancer), PC3 (prostate Cancer), G361 (Melanoma), MDA-MB435S (Melanoma), HeLa (Cervical Cancer) were grown in Minimal Essential Media with Eagle's Basal Salts (MEM-EBS) obtained from AMIMED (BioConcept-Switzerland). Tumour cell lines: MDA-MB231 (Breast Cancer), JURKAT (T cell leukaemia), H460 (Small Cell Lung Cancer) were cultured in RPMI 1640 (AMIMED, BioConcept, Switzerland) medium. All tumour cell lines were supplemented with 10% Foetal Bovine Serum (FBS) (GIBCO), 1% Penicillin/Streptomycin (Sigma) and 1% Anti-Anti (GIBCO) and grown in T-175 tissue culture flasks (Nunc). MCF-10A, a non-tumourigenic cell line, was cultured in Mammary Epithelial Basal Medium (MEBM) with all standard additions (Lonza, Catalog. No. CC-3150). All cells were grown in 5% CO2 incubator at 37° C. Cells were passaged at 80-90% confluence. Adherent cells were trypsinised using Trypsin-EDTA (Sigma) and maintained. All cell lines were purchased from ATCC (Rockville, Md., USA).
(§3) Compound of Formula (1a) [described in example 7] was dissolved in DMSO to give a required stock solution of 20 mM. Eight different concentrations of the compound of Formula (1a) were prepared by serial dilution of stock solution finally resulting in a (compared to the test concentration) 200-fold higher concentration. Compound of Formula (1a) was tested at the concentration of 0.0001 μM, 0.001 μM, 0.01 μM, 0.03 μM, 0.1 μM, 0.3 μM, 1 μM and 3 μM respectively. Each concentration was evaluated in triplicate.
(§4) Method for determination of IC50 of the compound of Formula (1a): • a) Different cancer/normal cells were seeded at a density of 3000 cells/200 μL well, in a tissue culture grade 96 well plate and allowed them to recover for 24 hrs in a humidified 5±0.2% CO2 incubator at 37±0.5° C. • b) After 24 hrs, 1 μL of 200× (200 times higher than required concentration is denoted as 200×) compound of Formula (1a), dissolved in DMSO, was added to the above tissue culture plate seeded with cancer/normal cells. The final concentration of DMSO was 0.5% in wells. DMSO was used as a vehicle control. • c) After 24 hrs the plate was removed from CO2 incubator and 5 μL of CCK-8 (Dojindo Molecular Technologies, Inc. USA, catalog, no. CK04-20) per well was added. • d) The plate was then placed at 37° C. for 2 hrs. • e) The absorbance was recorded at 450 nm. • f) The percent cytotoxicity was calculated using the following formula
(§5) The IC50 value was estimated by visual inspection of the concentration-effect curve. For calculation of mean IC50 values over the fourteen cell lines as tested, the geometric mean was selected.
(§6) The assays were designed as described above in example 16.
(§7) The IC50 value was estimated by visual inspection of the concentration-effect curve. For calculation of mean IC50 values over the six cell lines (PC3, MDA MB, HCT116, MCF7, MIAPaCa2, MCF10A) as tested, the geometric mean was selected.

HeLa cancer cells = test: Detection of FITC Annexin V apoptosis by flow cytometry; format: cell-based, human; conditions: for cells positive for annexin V staining (M2): HeLa cells, 12 hrs
Source text: The annexin V assay, a classical technique for detecting apoptosis, is the most commonly used method for detecting apoptosis by flow cytometry. One of the earliest features of apoptosis is the translocation of phosphatidylserine from the inner to the outer leaflet of the plasma membrane, thereby exposing phosphatidylserine to the external environment.
Annexin V (cat. no. 556420, BD Biosciences, USA) binds to phosphatidylserine exposed on the cell surface and identifies cells at an earlier stage of apoptosis. • a) HeLa cancer cells [referred to in step 1 of example 16] were seeded at a density of 0.5×10^6 cells/2000 μL well, in a tissue culture grade […] and allowed them to recover for 12 hrs in a humidified 5±0.2% CO2 incubator at 37±0.5° C. • b) After 12 hrs, 5 μL of 200× (200 times higher than required concentration is represented as 200×) compound of Formula (1a) dissolved in DMSO [step 2, example 16] was added to above tissue culture plate seeded with HeLa cancer cells. The final test concentration of the compound of Formula (1a) was 0.0003 μM, 0.003 μM and 0.01 μM. […] The population present in M1 and M2 were determined using FACS analysis.

[2] = Solubility (physical properties); format: physicochemical
[3] = tested on: FADU (Head and Neck Cancer); test: Monolayer assay (CCK-8 cytotoxicity); format: cell-based; conditions: Homo sapiens, 24 hrs exposure
Protocol: as §1, §2, §3, §4, §5

MDA-MB435S (Melanoma) = test: Monolayer assay (CCK-8 cytotoxicity); format: cell-based; conditions: Homo sapiens, MDA-MB-435S, MDAMB435S, 24 hrs exposure
Protocol: as §1, §2, §3, §4, §5

[4] = tested on: Panc-1 (Pancreatic Cancer); test: Monolayer assay (CCK-8 cytotoxicity); format: cell-based; conditions: Homo sapiens, 24 hrs exposure
Protocol: as §1, §2, §3, §4, §5

H460 = test: Monolayer assay (CCK-8 cytotoxicity); format: cell-based; conditions: Homo sapiens, NCI-H460, H460, Non Small Cell Lung, 24 hrs exposure
Protocol: as §1, §2, §3, §4, §5

Calu-1 (Lung Carcinoma) = test: Monolayer assay (CCK-8 cytotoxicity); format: cell-based; conditions: Homo sapiens, 24 hrs exposure
Protocol: as §1, §2, §3, §4, §5

G361 (Melanoma) = test: Monolayer assay (CCK-8 cytotoxicity); format: cell-based; conditions: Homo sapiens, G-361, 24 hrs exposure
Protocol: as §1, §2, §3, §4, §5

[5] = tested on: JURKAT (T cell leukaemia); test: Monolayer assay (CCK-8 cytotoxicity); format: cell-based; conditions: Homo sapiens, 24 hrs exposure
Protocol: as §1, §2, §3, §4, §5

[6] = tested on: ACHN (Renal Cell Carcinoma); test: Monolayer assay (CCK-8 cytotoxicity); format: cell-based; conditions: Homo sapiens, 24 hrs exposure
Protocol: as §1, §2, §3, §4, §5

HeLa (Cervical Cancer) = test: Monolayer assay (CCK-8 cytotoxicity); format: cell-based; conditions: Homo sapiens, 24 hrs exposure
Protocol: as §1, §2, §3, §4, §5

[7] = tested on: HCT 116 (Colorectal Cancer); test: Monolayer assay (CCK-8 cytotoxicity); format: cell-based, human; conditions: Homo sapiens, HCT-116; HCT116, Colon; 24 hrs exposure, CCK-8; read-out: IC50
Protocol: as §1, §2, §3, §4, §5, §6, §7

[8] = tested on: MiaPaca2 (Pancreatic Cancer); test: Monolayer assay (CCK-8 cytotoxicity); format: cell-based; conditions: Homo sapiens, MIA PaCa-2, MiaPaca 2, Pancreatic, 24 hrs exposure
Protocol: as §1
as §2, with “Adherent cells were trypsinised using Trypsin-EDTA (Sigma) and maintained. All cell lines were purchased from ATCC (Rockville, Md., USA).” left out
Compound of Formula (1a) [described in example 7] was dissolved in DMSO to give a required stock solution of 20 mM. […] Each concentration was evaluated in triplicate. […]

## CC(C)CC1CCC(O)(C(C)(O)C(=O)NC2C(=O)N3NCCCC3C(=O)N(O)C(C)C(=O)NCC(=O)N3NCCCC3C(=O)N(O)C(C)C(=O)OC2C(C)C)OC1C (stereo not shown) [Formula (1a), N-(6,18-dihydroxy-22-isopropyl-7,19-dimethyl-5,8,11,17,20,24-hexaoxotetracosa hydrodipyridazino[6,1-f:6′,1′-o][1,4,7,10,13,16]oxapentaazacyclononadecin-23-yl)-2-hydroxy-2-(2-hydroxy-5-isobutyl-6-methyltetrahydro-2H-pyran-2-yl)propanamide]
[1]; Homo sapiens, MCF-10A, 24 h
  IC50: 19 nM
[1]
  IC50: 19.7 ± 3.1 nM
HeLa cancer cells; HeLa cancer cells, conclusion
  induction of apoptosis (in words): induces cell death through apoptosis
HeLa cancer cells; 0.0003 μM
  cells positive for annexin V staining (M2): 33.80%
HeLa cancer cells; 0.003 μM
  cells positive for annexin V staining (M2): 40.27%
HeLa cancer cells; 0.01 μM
  cells positive for annexin V staining (M2): 59.05%
[2]; chloroform, ethyl acetate and methanol
  Solubility in organic solvents: Soluble in chloroform, ethyl acetate and methanol;
[2]; water
  Solubility in water: insoluble in water
[3]
  IC50: 22.4 ± 1.2 nM
MDA-MB435S (Melanoma)
  IC50: 2.9 ± 0.48 nM
[4]
  IC50: 1.3 ± 0.32 nM
H460
  IC50: 9.2 ± 0.76 nM
Calu-1 (Lung Carcinoma)
  IC50: 25.2 ± 3.5 nM
G361 (Melanoma)
  IC50: 24.1 ± 4.3 nM
[5]
  IC50: 15.9 ± 2.6 nM
[6]
  IC50: 7.1 ± 0.64 nM
HeLa (Cervical Cancer)
  IC50: 10.1 ± 3.1 nM
[7]
  IC50: 15.1 ± 2.3 nM
[8]
  IC50: 25.3 ± 4.6 nM
